Results as given in patent US9408820B2, “Broncholytic drug on the basis of prostaglandin” (OBSCHESTVO S OGRANICHENNOY OTVETSTVENNOST'YU “PROSTANIT …, priority 2012, dated 2016).

What was measured:
[1] = tested on: patients with bronchial asthma in unstable remission state; test: broncholytic activity by inhalation in patients with bronchial asthma; type: in vivo, human
Description: (§1) The present invention solves the task of creating of bronchial dilating drug on the basis of 1′,3′-dinitroglycerol ester of 11(S),15(S)-dihydroxy-9-keto-5Z,13E-prostadienoic acid (nitroproston). This drug is any form of nitroproston suitable for introduction into the respiratory tract by inhalation, for example in the form of isotonic solution. […] Therapeutic index measured in rodents is greater than 15000.
On the x-axis is the time after the introduction of the nitroproston, min; on the y-axis is the peak exhale velocity (l/min). The names of patients are abbreviated.
(§2) The tests were carried out on healthy volunteers (average age 42.6±3.9 years) and patients with bronchial asthma in unstable remission state (average age 48.3±5.1 years). Nitroproston was introduced via inhalation in the form of a solution in the physiological solution in doses of 5 and 7.5 μg per inhalation. To a person skilled in the art will not meet a difficulty to prepare the solution for inhalation, knowing the dose of the active substance and the volume of the solution, which will be determined by technical features used in the specific context of the inhaler. […] External respiratory function was determined with the help of automatic spiroanalyzer (VI 8911, Estonia). […] So, change the maximum 25% volume exhalation velocity ranged from 10.4 to 32.2% as compared to the original values. Changes in peak volumetric velocity of exhalation in patients who have received 7.5 micrograms nitroproston per inhalation, are presented at the FIG. 1.

healthy volunteers = test: inhalation in healthy volunteers, external respiratory function; type: in vivo, human
Method: as §1, §2

guinea pig trachea = conditions: isolated guinea pig trachea; read-out: EC50, relaxation of the guinea pig trachea; cited from earlier work
individuals = conditions: in vivo; cited from earlier work
white outbred male mice [2] = test: acute toxicity and therapeutic index in mice; type: in vivo; conditions: alcohol solution
Method: Experiments conducted on white outbred male mice (22±2 g weight). Nitroproston in the form of alcohol solution was injected intraperitoneal to the 10 mice in a maximum of 50 μl per dose of 215 mg/kg. The control group (10 animals) was injected with the same volume of pure ethyl alcohol. Animal health monitoring period was 14 days. Therapeutic index defined as the ratio of LD50 values (toxic dose) to the ED20 for change in blood pressure (pharmacological dose).

white outbred male mice [3] = test: toxicity in repeated introduction in mice; type: in vivo; conditions: 50 and 500 μg/kg daily for 14 days
Method: Experiments conducted on white outbred male mice (22±2 g weight). Animals were divided into three groups of 10 animals each. Nitroproston (1% of alcoholic solution) was diluted with water and was injected in the volume 20 μl in two doses: 50 and 500 μg/kg. The control group was injected with equal volume of distilled water. The injections worked every day for 14 days. The animals were observed daily, measuring their weight, the intake of food and water. There have been observed no differences in the state and behavior of the animals between the control and experimental groups.

| SMILES | bronchospasm test result ([1]; patients with bronchial asthma) | changes in the functions of the external respiration (healthy volunteers) | EC50 (guinea pig trachea) [nM] | side effect in individuals (individuals) | animal deaths (white outbred male mice [2]; 215 mg/kg intraperitoneal, 14 days observation) | acute toxicity assessment (white outbred male mice [2]; intraperitoneal, mice) | toxic effects on repeated introduction (white outbred male mice [3]) | parameters of external breath ([1]; 5 μg per inhalation) | side effects ([1]; 5 μg per inhalation) | external respiration indices ([1]; 7.5 μg per inhalation) | toxicity at therapeutic doses ([1]; 5-20 μg per inhalation) | peak volumetric velocity of exhalation ([1]; 7.5 micrograms per inhalation, within 360 minutes (FIG. 1)) | only side effect of the inhalation solution ([1]; inhalation solution) | bronchial dilation and side effects ([1]; isotonic solution, 7.5 micrograms per inhalation) | cough bouts ([1]; patients with asthma, inhalation) | cough bouts (healthy volunteers) |
| --- | --- | --- | --- | --- | --- | --- | --- | --- | --- | --- | --- | --- | --- | --- | --- | --- |
| CC(Cc1ccc(O)cc1)NCC(O)c1cc(O)cc(O)c1 (stereo not drawn) [Berotec, reference compound] | positive result | did not cause significant changes |  |  |  |  |  |  |  |  |  |  |  |  |  |  |
| CCCCC[C@H](O)/C=C/[C@H]1[C@H](O)CC(=O)[C@@H]1C/C=C\CCCC(=O)O [natural prostaglandin E2, prostaglandin E2, reference compound] |  |  | 140 ± 80 | strong cough reflex |  |  |  |  |  |  |  |  |  |  |  |  |
| CCCCC[C@H](O)/C=C/[C@H]1[C@@H](O)CC(=O)[C@@H]1C/C=C\CCCC(=O)OC(CO[N+](=O)[O-])CO[N+](=O)[O-] [nitroproston, 1′,3′-dinitroglycerol ester of 11(S),15(S)-dihydroxy-9-keto-5Z,13E-prostadienoic acid] |  | did not cause significant changes | 7 |  | animal deaths have not observed | low-toxic compound | no toxic effects | improved slightly | have not noticed any side effects | have been improved | non-toxic | strongest increase | transient dry mouth | prolonged dilation of bronchus without side effects | no cough bouts | no cough bouts |
